Our source for the Activity and ΔTm values is ChEMBL document CHEMBL6127154, “Pursuing Polypharmacology: Benzothiopyranoindoles as G-Quadruplex Stabilizers and Topoisomerase I Inhibitors for Effective Anticancer Strategies” (ACS Med Chem Lett, 2024).

Each structure is given as a SMILES string. Activity calls are given as the source filed them. No cut-off for these calls is given here.

Assay [1] deals with HCT-116. As to the kind of experiment: Induction of DNA damage in human HCT-116 cells assessed as increase in 53BP1 foci positive cells incubated for 24 hrs by immunofluorescence staining based analysis. In kind it is functional, cell-based.
The subject of assay [2] is HCT-116. The assay is described as follows: Induction of DNA damage in human HCT-116 cells assessed as increase in gammaH2AX level incubated for 24 hrs by immunofluorescence staining based analysis. The class given is functional, cell-based.
Assay [3] concerns Quadruplex DNA. As to the kind of experiment: Thermal stabilization of human c-Myc G4 quadruplex DNA assessed as change in melting temperature (deltaT1/2) incubated for 10 mins by circular dichroism spectroscopic analysis (reference value: 70.5 +/- 0.1 degreeC). The class given is nucleic-acid assay. Background: Circular dichroism is the unequal absorption of left and right circularly polarised light.

The test system of assay [4] is Quadruplex DNA. As to the kind of experiment: Thermal stabilization of human Tel23-p G4 quadruplex DNA assessed as change in melting temperature (deltaT1/2) incubated for 10 mins by circular dichroism spectroscopic analysis (reference value: 68.2 +/- 0.1 degreeC). The class given is nucleic-acid assay.
Assay [5] deals with Quadruplex DNA. As to the kind of experiment: Thermal stabilization of human Tel26-hy G4 quadruplex DNA assessed as change in melting temperature (deltaT1/2) incubated for 10 mins by circular dichroism spectroscopic analysis (reference value: 55.4 +/- 0.1 degreeC). In kind it is nucleic-acid assay.
The subject of assay [6] is Quadruplex DNA. The assay is described as follows: Thermal stabilization of human c-Kit2 G4 quadruplex DNA assessed as change in melting temperature (deltaT1/2) incubated for 10 mins by circular dichroism spectroscopic analysis (reference value: 62.4 +/-0.1 degreeC). The class given is nucleic-acid assay.
The test system of assay [7] is Quadruplex DNA. The assay is described as follows: Thermal stabilization of human Tel23-hy G4 quadruplex DNA assessed as change in melting temperature (deltaT1/2) incubated for 10 mins by circular dichroism spectroscopic analysis (reference value: 48 +/- 0.1 degreeC). The class given is nucleic-acid assay.

With `CC[C@@]1(O)C(=O)OCc2c1cc1n(c2=O)Cc2cc3ccccc3nc2-1`, the outcome in the assay with HCT-116 [1] and with HCT-116 [2] was Active.
Broadly, the ΔTm is the change in melting temperature against a reference sample. Regarding `COc1ccc2cc3[n+](cc2c1OC)CCc1cc2c(cc1-3)OCO2`, the thermal shift (ΔTm) with Quadruplex DNA [3] is 15.5 °C; in the assay with Quadruplex DNA [4], greater than 20 °C; in the assay with Quadruplex DNA [5], 6.8 °C; in the assay on Quadruplex DNA [6] it was greater than 20 °C; in the assay on Quadruplex DNA [7], 12.7 °C.
